Data taken from paper PMC5505240, “The structure of a complex of the lactonohydrolase zearalenone hydrolase with the hydrolysis product of zearalenone at 1.60 Å resolution” (Acta Crystallographica. Section F, Structural Biology …, 2017).

B1: Zearalenone hydrolase (ZHD), C-terminally His6-tagged (enzyme, Clonostachys rosea)
chain: MDMRTRSTISTPNGITWYYEQEGTGPDIVLVPDGLGECQMFDSSVSQIAAQGFRVTTFDMPGMSRSAKAPAETYTEVTAQKLASYVISILDALDIKHATVWGCSSGASTVVALLLGYPDRIRNAMCHELPTKLLDHLSNTAVLEDEEISNILANVMLNDVSGGSEAWQALGVEVHARLHKNYPVWARGYPRTIPPSAPVQDVEALRGKPLDWTVGAATPTESFFDNIVTATKAGVNIGLLPGMHFPYVSHPDVFAKYVVETTQKHLWNSSSVDKLAAALE
notes: zearalenone hydrolase (ZHD) cloned from genomic DNA of a Clonostachys rosea strain (CGMCC); natural strain variant with eight amino-acid variations compared with GenBank ALI16790.1; 14-amino-acid linker between ZHD and the C-terminal His6 tag; The His6 is written under tags, the linker as a part; The substitutions count against GenBank ALI16790.1, not necessarily against the UniProt entry; also …

Legend:
[1] = molecular target: T1, ZHD (zearalenone hydrolase) (Clonostachys rosea, UniProt Q8NKB0, V26I/P69A/V87I/K148N/M168L/D170V/K198Q/L200V); test: HPLC of remaining ZEN; format: biochemical; conditions: 100 mM Tris-HCl pH 9.5, 30 °C, 15 nM ZHD, 1-50 µM ZEN
T1 construct: gene zhd101; full length; natural clone from genomic DNA of a CGMCC strain; extra N-terminal MD; E. coli BL21(DE3); dimer

[2] = molecular target: the molecule itself; test: SEC; HiLoad 16/60 Superdex 200 prep-grade column, last step of the purification; oligomeric state from the elution position

Molecule	Km [1] [µM]	stoichiometry N [2]
C[C@H]1CCCC(=O)CCC/C=C/c2cc(O)cc(O)c2C(=O)O1 [ZEN, zearalenone]	3.5	–
B1	–	2
